Data taken from the supplement of paper PMC13380429.

How the values were obtained:
[1] = tested on: A549-ACE2; experiment: drug-induced phospholipidosis relative to tamoxifen; higher = more phospholipidosis
[2] = tested on: Calu-3; experiment: drug sensitivity score (DSS) for viability; higher = more toxic; extreme values may be limits of the assay; settings: 72 h
[3] = tested on: Vero E6; experiment: as above; settings: 72 h
[4] = tested on: Caco-2; experiment: as above; settings: 72 h
[5] = tested on: HepG2; experiment: as above; settings: 72 h
[6] = tested on: U2OS; experiment: as above; settings: 72 h
[7] = tested on: A549-ACE2; experiment: phospholipidosis EC50; higher = less potent phospholipidosis inducer
[8] = tested on: Calu-3; experiment: cell viability relative to DMSO; higher = less toxic; settings: 72 h
[9] = tested on: Vero E6; experiment: as above; settings: 72 h
[10] = tested on: Caco-2; experiment: as above; settings: 72 h
[11] = tested on: HepG2; experiment: as above; settings: 72 h
[12] = tested on: U2OS; experiment: as above; settings: 72 h
[13] = tested on: A549-ACE2 infected with SARS-CoV-2; experiment: cell count relative to DMSO; higher = less toxic; settings: 24 h
[14] = tested on: Calu-3; experiment: relative viability EC50 (midpoint between 100% and the lowest measured viability); higher = less toxic; settings: 72 h
[15] = tested on: Vero E6; experiment: as above; settings: 72 h
[16] = tested on: HepG2; experiment: as above; settings: 72 h
[17] = tested on: U2OS; experiment: as above; settings: 72 h
[18] = tested on: A549-ACE2 infected with SARS-CoV-2; experiment: morphology score (similarity to uninfected cells); higher = more like uninfected cells; settings: 24 h
[19] = tested on: A549-ACE2 infected with SARS-CoV-2; experiment: SARS-CoV-2 infection rate relative to DMSO; higher = more infection; settings: 24 h
[20] = tested on: Caco-2; experiment: relative viability EC50 (midpoint between 100% and the lowest measured viability); higher = less toxic; settings: 72 h

CCN(CC)CCO[C@H]1CC[C@@]2(C)C(=CC[C@@H]3[C@@H]2CC[C@]2(C)C(=O)CC[C@@H]32)C1
drug-induced phospholipidosis [%], [1]
Settings | 0.3 µM | 0.833333 µM | 3.33333 µM | 6.66667 µM | 10 µM | 30 µM
24 h | 6.72 | 34.6 | 112 | 114 | 104 | 86.8
48 h | 7.14 | 19.8 | 111 | 116 | 106 | 90
72 h | 6.02 | 13.4 | 95.4 | 125 | 115 | –

Settings | drug sensitivity score | relative viability EC50 [µM]
[2] | 7.7 | –
[3] | 5.4 | –
[4] | 4.4 | –
[5] | 5.8 | –
[6] | 2.2 | –
[14] | – | 1.54
[15] | – | 2.32
[16] | – | 1.72
[17] | – | > 10

Settings | SARS-CoV-2 infection rate [%] | cell count [%] | cell viability [%] | morphology score | phospholipidosis EC50 [µM]
[7], 24 h | – | – | – | – | 0.935
[7], 48 h | – | – | – | – | 1.04
[7], 72 h | – | – | – | – | 2.25
[8], 1 nM | – | – | 98 | – | –
[8], 10 nM | – | – | 103 | – | –
[8], 100 nM | – | – | 107 | – | –
[8], 1000 nM | – | – | 79.4 | – | –
[8], 10000 nM | – | – | 18.5 | – | –
[9], 1 nM | – | – | 93.9 | – | –
[9], 10 nM | – | – | 104 | – | –
[9], 100 nM | – | – | 89.3 | – | –
[9], 1000 nM | – | – | 92.3 | – | –
[9], 10000 nM | – | – | 24.6 | – | –
[10], 1 nM | – | – | 92 | – | –
[10], 10 nM | – | – | 92.6 | – | –
[10], 100 nM | – | – | 97.2 | – | –
[10], 1000 nM | – | – | 88.4 | – | –
[10], 10000 nM | – | – | 51.2 | – | –
[11], 1 nM | – | – | 101 | – | –
[11], 10 nM | – | – | 93.8 | – | –
[11], 100 nM | – | – | 85.3 | – | –
[11], 1000 nM | – | – | 84.5 | – | –
[11], 10000 nM | – | – | 33.5 | – | –
[12], 1 nM | – | – | 99.4 | – | –
[12], 10 nM | – | – | 98.4 | – | –
[12], 100 nM | – | – | 99.7 | – | –
[12], 1000 nM | – | – | 84.9 | – | –
[12], 10000 nM | – | – | 78.6 | – | –
[13], 0.1 µM | – | 96 | – | – | –
[13], 0.3 µM | – | 105 | – | – | –
[13], 1 µM | – | 114 | – | – | –
[13], 3 µM | – | 117 | – | – | –
[18], 0.1 µM | – | – | – | -0.31 | –
[18], 0.3 µM | – | – | – | 0.19 | –
[18], 1 µM | – | – | – | 0.41 | –
[18], 3 µM | – | – | – | 0.69 | –
[19], 0.1 µM | 108 | – | – | – | –
[19], 0.3 µM | 93 | – | – | – | –
[19], 1 µM | 81 | – | – | – | –
[19], 3 µM | 29 | – | – | – | –

CN(C(=O)Cc1ccc(Cl)c(Cl)c1)[C@H](CN1CCCC1)c1ccccc1
drug-induced phospholipidosis [%], [1]
Settings | 0.3 µM | 0.833333 µM | 3.33333 µM | 6.66667 µM | 10 µM | 30 µM
24 h | 0.7 | 4.92 | 51.2 | 90.6 | 95.8 | 112
48 h | 4.43 | 3.22 | 36.7 | 77.7 | 97.8 | –
72 h | 3.91 | 2.85 | 31.5 | 65.6 | 90.5 | –

Settings | drug sensitivity score | relative viability EC50 [µM]
[2] | 4.3 | –
[3] | 0 | –
[4] | 0.7 | –
[5] | 0.3 | –
[6] | 0 | –
[14] | – | 2.85
[15] | – | > 10
[16] | – | > 10
[17] | – | > 10
[20] | – | > 10

Settings | SARS-CoV-2 infection rate [%] | cell count [%] | cell viability [%] | morphology score | phospholipidosis EC50 [µM]
[7], 24 h | – | – | – | – | 3.63
[7], 48 h | – | – | – | – | 5.18
[7], 72 h | – | – | – | – | 8.35
[8], 1 nM | – | – | 96.1 | – | –
[8], 10 nM | – | – | 100 | – | –
[8], 100 nM | – | – | 90.9 | – | –
[8], 1000 nM | – | – | 97.1 | – | –
[8], 10000 nM | – | – | 28.9 | – | –
[9], 1 nM | – | – | 104 | – | –
[9], 10 nM | – | – | 101 | – | –
[9], 100 nM | – | – | 107 | – | –
[9], 1000 nM | – | – | 102 | – | –
[9], 10000 nM | – | – | 88.1 | – | –
[10], 1 nM | – | – | 96.7 | – | –
[10], 10 nM | – | – | 103 | – | –
[10], 100 nM | – | – | 103 | – | –
[10], 1000 nM | – | – | 103 | – | –
[10], 10000 nM | – | – | 76 | – | –
[11], 1 nM | – | – | 98.1 | – | –
[11], 10 nM | – | – | 105 | – | –
[11], 100 nM | – | – | 106 | – | –
[11], 1000 nM | – | – | 99.4 | – | –
[11], 10000 nM | – | – | 85.3 | – | –
[12], 1 nM | – | – | 96.9 | – | –
[12], 10 nM | – | – | 99.7 | – | –
[12], 100 nM | – | – | 101 | – | –
[12], 1000 nM | – | – | 106 | – | –
[12], 10000 nM | – | – | 89.9 | – | –
[13], 0.3 µM | – | 96 | – | – | –
[13], 3 µM | – | 118 | – | – | –
[13], 10 µM | – | 121 | – | – | –
[13], 30 µM | – | 92 | – | – | –
[18], 0.3 µM | – | – | – | -0.06 | –
[18], 3 µM | – | – | – | 0.89 | –
[18], 10 µM | – | – | – | 0.84 | –
[18], 30 µM | – | – | – | 0.1 | –
[19], 0.3 µM | 97 | – | – | – | –
[19], 3 µM | 21 | – | – | – | –
[19], 10 µM | 17 | – | – | – | –
[19], 30 µM | 36 | – | – | – | –

COc1cc(-n2cnc3cc(-c4ccc(Cl)cc4)sc3c2=O)ccc1OCCN1CCCC1
drug-induced phospholipidosis [%], [1]
Settings | 0.3 µM | 0.833333 µM | 3.33333 µM | 6.66667 µM | 10 µM | 30 µM
24 h | 0.98 | -0.51 | 19.1 | 56.7 | 87.1 | 172
48 h | 1.08 | -1.67 | 14.3 | 36.9 | 63.3 | 141
72 h | 2.44 | -3.52 | 9.91 | 23.8 | 43.5 | 111

Settings | drug sensitivity score | relative viability EC50 [µM]
[2] | 0 | –
[3] | 0 | –
[4] | 0 | –
[5] | 2 | –
[6] | 0 | –
[14] | – | > 10
[15] | – | > 10
[17] | – | > 10
[20] | – | > 10

Settings | SARS-CoV-2 infection rate [%] | cell count [%] | cell viability [%] | morphology score | phospholipidosis EC50 [µM]
[7], 24 h | – | – | – | – | 12.9
[7], 48 h | – | – | – | – | 16.7
[7], 72 h | – | – | – | – | 21
[8], 1 nM | – | – | 102 | – | –
[8], 10 nM | – | – | 102 | – | –
[8], 100 nM | – | – | 100 | – | –
[8], 1000 nM | – | – | 101 | – | –
[8], 10000 nM | – | – | 89.3 | – | –
[9], 1 nM | – | – | 110 | – | –
[9], 10 nM | – | – | 104 | – | –
[9], 100 nM | – | – | 107 | – | –
[9], 1000 nM | – | – | 93.4 | – | –
[9], 10000 nM | – | – | 93.6 | – | –
[10], 1 nM | – | – | 111 | – | –
[10], 10 nM | – | – | 88.4 | – | –
[10], 100 nM | – | – | 104 | – | –
[10], 1000 nM | – | – | 103 | – | –
[10], 10000 nM | – | – | 88.7 | – | –
[11], 1 nM | – | – | 108 | – | –
[11], 10 nM | – | – | 108 | – | –
[11], 100 nM | – | – | 108 | – | –
[11], 1000 nM | – | – | 93.9 | – | –
[11], 10000 nM | – | – | 73.2 | – | –
[12], 1 nM | – | – | 92.4 | – | –
[12], 10 nM | – | – | 95.9 | – | –
[12], 100 nM | – | – | 95.7 | – | –
[12], 1000 nM | – | – | 102 | – | –
[12], 10000 nM | – | – | 90.6 | – | –
[13], 0.3 µM | – | 104 | – | – | –
[13], 3 µM | – | 116 | – | – | –
[13], 10 µM | – | 120 | – | – | –
[13], 30 µM | – | 120 | – | – | –
[18], 0.3 µM | – | – | – | 0.28 | –
[18], 3 µM | – | – | – | 0.6 | –
[18], 10 µM | – | – | – | 0.87 | –
[18], 30 µM | – | – | – | 0.67 | –
[19], 0.3 µM | 98 | – | – | – | –
[19], 3 µM | 73 | – | – | – | –
[19], 10 µM | 20 | – | – | – | –
[19], 30 µM | 18 | – | – | – | –
